Patent US11059718B2, “Methods and compositions using peptides and proteins with C-terminal elements” (Sanford Burnham Prebys Medical Discovery Institute, priority 2009, dated 2021)
Where no end group is shown, it is not given here. [ ]: non-standard residue; d: D form.

Assays:
[1] = tested on: PPC1 prostate cancer cells; test: T7 phage binding and internalization on cultured PPC1 cells; format: cell-based, human; settings: for phage binding to and internalization into PPC1 cells: peptide displayed at C-terminus of T7 phage coat protein, binding at 4° C., internalization at 37° C. with pH 2.5 wash; for effect of trypsin treatment of phage on binding to PPC1 cells: peptide-displaying phage treated with trypsin before cell binding
Description: (§1) To measure phage binding, 10^6 cells in binding buffer (DMEM containing 1% BSA) were incubated with 10^9 pfu/ml of T7 phage for 1 hour at 4° C. The cells were washed 4 times with the binding buffer, lysed in LB bacterial growth medium containing 1% NP-40, and titrated. Phage internalization assays used the same procedure, except that the cells were incubated with the phage at 37° C., and that an acidic buffer (500 mM sodium chloride, 0.1 M glycine, 1% BSA, pH 2.5) was used instead of binding buffer in the second wash.
Inhibitors of phage binding and internalization (heparin, chondroitin, glycocalyx removal enzymes, endocytosis inhibitors, free peptides, quantum dots and UV-inactivated phage) were added to the cells 20 minutes prior to incubation with phage. Endocytosis inhibitors used in this study were the following: nystatin (50 μg/ml), genistein (100 μg/ml), chlorpromazine (5 μg/ml), 5-(N-ethyl-N-isopropyl)amiloride (100 μM), wortmannin (10 μM).
M21 melanoma cells were transiently transfected with these constructs using lipofectamine according to manufacturer's instructions (Invitrogen, Carlsbad, Calif.). Protease treatment of phage and qdots. 10^9 phage particles or 50 μl of peptide-coated qdots phage were treated with 50 iu of uPA, 25 μg of crystalline trypsin, 50 iu of thrombin, or 25 μg of collagenase type I (all Sigma, St. Louis, Mo.).

live, unfixed cells = test: Binding and uptake of peptide-functionalized quantum dots by cells; format: cell-based; settings: streptavidin qdots coated with biotinylated peptide
Description: Biotinylated peptides were used to functionalize the 605ITK streptavidin qdots (Invitrogen, Carlsbad, Calif.) according to the manufacturer's instructions.
Streptavidin ITK-605 quantum dots (Invitrogen, Carlsbad, Calif.) were functionalized with biotinylated peptides by incubation with 100 fold molar excess of peptide followed by removal of free peptide by dialysis.

[2] = tested on: orthotopic MIA PaCa-2 human pancreatic carcinoma xenografts; test: In vivo systemic permeability assay with Evans Blue, pancreatic tumor xenografts; parameters: species or system mice; settings: 100 nmol (or 100 μg) peptide 5 min after Evans Blue, tissues collected 30 min later
Description: FIGS. 5A and 5B show tumor-specific entry of Evans Blue (albumin) into extravascular tumor tissue in iRGD-injected mice. iRGD is SEQ ID NO:3. iRGDD is SEQ ID NO:4. Mice bearing orthotopically transplanted pancreatic or breast cancer xenografts were injected with […] of Evans Blue, followed 5 min later by 100 μg of iRGD peptide in PBS, PBS alone, or a control peptide. Tumors and tissues were collected 30 min. later and examined for dye content. […] About 4 times more dye accumulated in the iRGD-treated tumors than in control tumors. The control peptides included non-CendR RGD peptides.
FIGS. 9A-9D show a tumor-specific entry of Evans Blue into extravascular tumor tissue in iRGD-injected mice. iRGD is SEQ ID NO:3. iRGDD is SEQ ID NO:4. […] (FIGS. 9B to 9D) Quantification of Evans Blue in the pancreatic tumors and tissues. […]
Five min later, the mice received an intravenous injection with 100 μl of PBS with or without iRGD or control peptides at various concentrations. […] For Evans Blue quantification, the dye was extracted from tissues using N,N-dimethylformamide for 24 hours at 37° C. and the dye content was quantified by measuring the absorbance at 600 nm with a spectrophotometer. […] Quantification of the positive area in immunohistochemically stained sections, and total amount of antibodies within the tissues are described elsewhere in this manuscript.

NRP-1 [3] = molecular target: T1, NRP-1 (Homo sapiens, UniProt O14786); test: Affinity chromatography of PPC-1 tumor extracts on immobilized RPARPAR peptide; format: binding; settings: PPC-1 tumor extract; confirmed by immunoblotting
T1 construct: from tissue; host or cells: orthotopic PPC-1 prostate tumor xenografts grown in BALB/c athymic nude mice
Description: PPC-1 tumors were lysed in PBS containing 200 mM n-octyl-beta-D-glucopyranoside, followed by incubation with RPARPAR (SEQ ID NO:2)-coated Sulfolink-beads (Pierce, Rockford, Ill.) and elution in lysis buffer containing 2 mM free RPARPAR (SEQ ID NO:2) peptide. Gel fragments excised from silver stained gel of eluted fractions were subjected to MALDI-TOF mass spectrometry at the Burnham Institute for Medical Research Proteomics Resource.
Orthotopic PPC-1 tumors were homgenized in PBS containing 400 mM n-octyl-beta-D-glucopyranoside, 1 mM MgSO4, 1 mM MnCl2, 1 mM CaCl2) and 1 tablet/5 ml of EDTA-free protease inhibitors cocktail (Sigma, St. Louis, Mo.). After 6 hours of extraction on a rotating platform at 4° C., the lysate was cleared by centrifugation (20 minutes at 14,000 rpm in refrigerated microcentrifuge) and loaded to an affinity column prepared by coupling cysteine-tagged RPARPAR (SEQ ID NO:2) peptide to Sulfolink coupling gel according to the manufacturer's instructions (Pierce, Rockford, Ill.). After overnight binding, the column was washed with a column wash buffer containing 200 mM n-octyl-beta-D-glucopyranoside, but otherwise identical to the lysis buffer, followed by elution with 2 mM free RPARPAR (SEQ ID NO:2) peptide in the same buffer. […]

NRP-1 [4] = molecular target: T2, NRP-1 (Homo sapiens, UniProt O14786, E348A/S346A/T349A); test: RPARPAR binding and internalization in M21 melanoma cells with or without NRP-1 expression; format: cell-based; settings: triple mutation of VEGF-165 binding site in b1 domain
T2 construct: expressed in transfected cells; host or cells: M21 melanoma cells, transient lipofectamine transfection
Description: as §1, with “For biopanning and phage binding studies (Hoffman, J. A. et al., 2004), cultured cells were grown to confluence and harvested with trypsin and mouse organs were dissociated using Medimachine (BD Biosciences, San Jose, Calif.). To” for “To”
(§2) Expression construct of the wild type NRP-1 cDNA in pcDNA3.1(+) was a kind gift of Dr. Michael Klagsbrun. Site directed mutagenesis was used to generate triple mutation of the VEGF-165 binding site in the b1 domain of NRP-1 (S346A-E348A-349A) by replacing […] (SEQ ID NO:29; encoding amino acids SKET) with […] (SEQ ID NO:30; encoding AKAA).
(§3) M21 melanoma cells were transiently transfected with these constructs using lipofectamine according to manufacturer's instructions (Invitrogen, Carlsbad, Calif.). Protease treatment of phage and qdots. […]

NRP-1 [5] = test: as above; format: cell-based; settings: M21 cells, which do not express NRP-1
Description: as §1, with “For biopanning and phage binding studies (Hoffman, J. A. et al., 2004), cultured cells were grown to confluence and harvested with trypsin and mouse organs were dissociated using Medimachine (BD Biosciences, San Jose, Calif.). To” for “To”
as §2, §3

orthotopic 22Rv1 tumors = test: 22Rv1 xenograft treatment with DOX-liposomes; format: in vivo, mice; settings: daily i.v. 1 mg DOX/kg + 2 μmol/kg peptide, 17 days, tumor weight
Description: (FIGS. 14A and 14B) Nude mice bearing orthotopic 22Rv1 human prostate tumors were intravenously injected with DOX-liposomes (3 mg DOX/kg) followed 5 min later by 100 nmol iRGD or PBS. Tumors and tissues were collected 3 hours later. In (FIG. 14A), the tumors were sectioned and stained with an anti-CD31 antibody. The doxorubicin is represented by the light specs that look like four halos in the left panel. Scale bars=200 μm, n=3. In (FIG. 14B), DOX in the tissues was quantified. […] The tumors were harvested and weighed after 17 days of treatment. The number of mice in each group was 5. One of 3 experiments that gave similar results is shown. (FIG. 14D) TUNEL staining was performed immunohistochemically on tissue sections of the tumor and heart samples from the treatment study, and quantified for positivity. Statistical analyses were performed with Student's r-test in (FIG. 14B), and ANOVA in (FIG. 14C) and (FIG. 14D); error bars, s.e.m.; n.s., not significant; single asterisk, p<0.05; double asterisk, p<0.01; triple asterisk, p<0.001.
Nude mice bearing 2 week-old orthotopic 22Rv1 tumors received daily intravenous injections of DOX-liposomes ([…]) or PBS, combined with 2 μmol/kg iRGD or PBS. The tumors were harvested and weighed after 17 days of treatment. The number of animals in each group was 13. […]

[6] = Stability of methylated iRGD peptides against proteolysis; format: in vitro ADME; settings: peptide bond protected by C-methylation or N-methylation

T1 sequence (O14786 22-923): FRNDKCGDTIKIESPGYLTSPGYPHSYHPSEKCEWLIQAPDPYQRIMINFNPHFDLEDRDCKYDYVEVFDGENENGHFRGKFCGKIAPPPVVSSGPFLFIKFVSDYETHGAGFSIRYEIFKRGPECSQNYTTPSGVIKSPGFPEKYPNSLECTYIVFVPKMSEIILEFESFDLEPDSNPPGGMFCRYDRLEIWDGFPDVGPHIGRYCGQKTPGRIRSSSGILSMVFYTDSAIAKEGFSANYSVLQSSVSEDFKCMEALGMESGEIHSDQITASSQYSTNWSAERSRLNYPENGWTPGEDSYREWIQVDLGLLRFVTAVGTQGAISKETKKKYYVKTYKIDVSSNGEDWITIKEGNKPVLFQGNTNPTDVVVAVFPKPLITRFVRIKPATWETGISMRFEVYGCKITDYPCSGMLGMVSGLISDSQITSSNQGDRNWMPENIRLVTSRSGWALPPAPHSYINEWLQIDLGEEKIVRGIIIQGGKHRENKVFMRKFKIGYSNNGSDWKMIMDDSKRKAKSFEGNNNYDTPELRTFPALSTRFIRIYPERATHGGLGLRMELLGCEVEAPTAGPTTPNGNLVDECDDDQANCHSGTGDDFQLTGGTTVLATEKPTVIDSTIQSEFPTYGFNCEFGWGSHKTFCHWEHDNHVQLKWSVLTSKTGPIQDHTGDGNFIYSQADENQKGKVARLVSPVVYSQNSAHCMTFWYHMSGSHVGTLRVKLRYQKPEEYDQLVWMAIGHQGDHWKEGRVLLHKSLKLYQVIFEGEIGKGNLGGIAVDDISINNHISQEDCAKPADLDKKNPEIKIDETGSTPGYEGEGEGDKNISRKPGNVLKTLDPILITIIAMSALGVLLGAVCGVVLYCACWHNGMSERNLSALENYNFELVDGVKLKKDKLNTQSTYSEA
T2 sequence (O14786 22-923 S346A/E348A/T349A): as the sequence (O14786 22-923) above, with S325A, E327A, T328A counted along it

ATWLPPR [A7R, reference compound]
phage binding to and internalization into PPC1 cells [1]: bound to and were taken up by PPC-1 cells

rparpar ([dR][dP][dA][dR][dP][dA][dR]; also: on quantum dots) [D-rparpar, RPARPAR peptide comprised of D-amino acids, on quantum dots]
binding and uptake of peptide-functionalized quantum dots (live, unfixed cells): greatly reduced ability to trigger uptake of quantum dots

CDCRGDCFC [RGD-4C, reference compound]
Evans Blue leakage/accumulation in tumor (vascular permeability effect) [2]: inactive
effect of trypsin treatment of phage on binding to PPC1 cells [1]: no effect

CRGDC [non-internalizing, non-CendR RGD peptide, reference compound]
effect of trypsin treatment of phage on binding to PPC1 cells [1]: no effect

RPARPAR [prototypic CendR peptide]
protein eluted from immobilized peptide with free peptide (NRP-1 [3]): 130-kDa protein, identified by MALDI-TOF mass spectroscopy as NRP-1
effect of inhibitors of cell internalization pathways on peptide-mediated internalization ([1]; endocytosis inhibitors added 20 minutes before phage): None of the available inhibitors of the various cell internalization pathways inhibited internalization
effect of unlabeled peptide on binding and uptake of VEGF-C7, enhanced tuftsin or A7R phage by PPC-1 cells ([1]; unlabeled peptide included in the binding buffer): both activities were reduced
binding by M21 cells transfected with NRP-1 binding pocket mutant (NRP-1 [4]): did not confer
binding and internalization by M21 melanoma cells (NRP-1 [5]): do not bind nor internalize

TKPPR [enhanced tuftsin, reference compound]
phage binding to and internalization into PPC1 cells [1]: bound to and were taken up by PPC-1 cells

cyclo(-RGDfK-)
anti-tumor effect of DOX-liposomes 1 mg DOX/kg combined with peptide (orthotopic 22Rv1 tumors): failed to enhance the effect of the drug
Evans Blue leakage/accumulation in tumor (vascular permeability effect) [2]: inactive

RPARPARA
phage binding to and internalization into PPC1 cells [1]: abolished cell binding and internalization
effect of trypsin treatment of phage on binding to PPC1 cells [1]: restored PPC-1 cell binding

CR(NMe)GDKGPDC
stability against proteolysis [6]: stable against unwanted proteolysis

C(CMe)RGDKGPDC
stability against proteolysis [6]: stable against unwanted proteolysis
